Experimental data taken from ChEMBL document CHEMBL1131794, “The synthesis and evaluation of 6-alkylidene-2'beta-substituted penam sulfones as beta-lactamase inhibitors” (Bioorg Med Chem Lett, 1999).

How the values were obtained:
Beta-lactamase TEM = Beta-lactamase TEM (Escherichia coli, UniProt P62593); assay: Inhibitory activity against serine Beta-lactamase TEM derived from […]; type: single protein
Beta-lactamase [1] = molecular target: T1, Beta-lactamase (Staphylococcus aureus, UniProt P00807); assay: Inhibitory activity against serine Beta-lactamase derived from Staphylococcus aureus
Beta-lactamase [2] = molecular target: T1, Beta-lactamase; assay: Inhibitory activity against serine beta-lactamase, PC1 (class A) derived from Staphylococcus aureus
Escherichia coli [3] = assay: In vitro synergistic activity against Escherichia coli C600N + (IRT-2); type: functional; further: test concentration or dose not given here
Escherichia coli [4] = assay: In vitro synergistic activity against Escherichia coli C600N + (Imi-1); type: functional
Pseudomonas aeruginosa = assay: In vitro synergistic activity against Pseudomonas aeruginosa Ps505A1 (AmpC derepressed); type: functional
Escherichia coli [5] = assay: In vitro synergistic activity against Escherichia coli ATCC 25922 (no beta-lactamase); type: functional; further: test concentration or dose not given here
Escherichia coli [6] = assay: In vitro synergistic activity against Escherichia coli 4100 (no beta-lactamase); type: functional
Escherichia coli [7] = assay: In vitro synergistic activity against Escherichia coli C600N + (L1); type: functional
Escherichia coli [8] = assay: In vitro synergistic activity against Escherichia coli C600N + (P99); type: functional
Aeromonas sobria = assay: In vitro synergistic activity against Aeromonas sobria (Asb A, OXA-12, Asb M); type: functional; further: test concentration or dose not given here
Escherichia coli [9] = assay: In vitro synergistic activity against Escherichia coli GC6265 (TEM-1); type: functional
Staphylococcus aureus = assay: In vitro synergistic activity against Staphylococcus aureus (PC1); type: functional; further: test concentration or dose not given here
Klebsiella pneumoniae [10] = assay: In vitro synergistic activity against Klebsiella pneumoniae (ACT-1 + 3 blas, IPM=S); type: functional; further: test concentration or dose not given here
Escherichia coli [11] = assay: In vitro synergistic activity against Escherichia coli 4100 + (CCRA); type: functional
Enterobacter cloacae [12] = assay: In vitro synergistic activity against Enterobacter cloacae SC12629 (AmpC inducible); type: functional; further: test concentration or dose not given here
Escherichia coli [13] = assay: In vitro synergistic activity against Escherichia coli C600N + (PSE-1); type: functional
[14] = test system: Stenotrophomonas maltophilia; assay: In vitro synergistic activity against Stenotrophomonas maltophilia 1712(L1); type: functional; further: test concentration or dose not given here
Klebsiella aerogenes = assay: In vitro synergistic activity against Enterobacter aerogenes GC 6268 clinical isolate; type: functional; further: test concentration or dose not given here
Escherichia coli [15] = assay: In vitro synergistic activity against Escherichia coli GC6267 clinical isolate; type: functional
Escherichia coli [16] = assay: In vitro synergistic activity against Escherichia coli ATCC 35218 (TEM-1); type: functional
Escherichia coli [17] = assay: In vitro synergistic activity against Escherichia coli C600N + (Sme-1); type: functional
Escherichia coli [18] = assay: In vitro synergistic activity against Escherichia coli C600N + (MIR-1); type: functional
Escherichia coli [19] = assay: In vitro synergistic activity against Escherichia coli C600N + (ampR ampC); type: functional; further: test concentration or dose not given here
Klebsiella pneumoniae [20] = assay: In vitro synergistic activity against Klebsiella pneumoniae KC2 (TEM-10); type: functional
Klebsiella pneumoniae [21] = assay: In vitro synergistic activity against Klebsiella pneumoniae GC 6269 clinical isolate; type: functional; further: test concentration or dose not given here
Serratia marcescens = assay: In vitro synergistic activity against Serratia marcescens GC 4132 (Amp C); type: functional; further: test concentration or dose not given here
Escherichia coli [22] = assay: In vitro synergistic activity against Escherichia coli 300 + (TEM-1); type: functional
Escherichia coli [23] = assay: In vitro synergistic activity against Escherichia coli GC 6266 clinical isolate; type: functional
Escherichia coli [24] = assay: In vitro synergistic activity against Escherichia coli 300 + (ampR ampC); type: functional; further: test concentration or dose not given here
Enterobacter cloacae [25] = assay: In vitro synergistic activity against Enterobacter cloacae (Imi-1+AmpC); type: functional
Escherichia coli [26] = assay: In vitro synergistic activity against Escherichia coli C600N + (OXA-10) {PSE-2}; type: functional
Escherichia coli [27] = assay: In vitro synergistic activity against Escherichia coli C600N + (SHV-1); type: functional
Escherichia coli [28] = assay: In vitro synergistic activity against Escherichia coli C600N + (SHV-4); type: functional
Escherichia coli [29] = assay: In vitro synergistic activity against Escherichia coli 300 (no beta-lactamase, imp mutant); type: functional
Escherichia coli [30] = assay: In vitro synergistic activity against Escherichia coli C600N (no beta-lactamase); type: functional
Escherichia coli [31] = assay: In vitro synergistic activity against Escherichia coli C600N + (TEM-10); type: functional
Escherichia coli [32] = assay: In vitro synergistic activity against Escherichia coli C600N + (TEM-1); type: functional

Chain of Beta-lactamase TEM (P62593 whole entry): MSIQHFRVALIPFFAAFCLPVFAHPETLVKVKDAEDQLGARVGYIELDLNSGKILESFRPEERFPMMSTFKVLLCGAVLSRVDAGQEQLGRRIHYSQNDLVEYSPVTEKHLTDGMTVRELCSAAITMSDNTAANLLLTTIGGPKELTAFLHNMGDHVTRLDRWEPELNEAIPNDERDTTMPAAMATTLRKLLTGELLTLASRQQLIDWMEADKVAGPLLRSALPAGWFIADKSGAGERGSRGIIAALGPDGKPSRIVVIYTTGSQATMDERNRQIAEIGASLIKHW
T1 sequence (P00807 whole entry): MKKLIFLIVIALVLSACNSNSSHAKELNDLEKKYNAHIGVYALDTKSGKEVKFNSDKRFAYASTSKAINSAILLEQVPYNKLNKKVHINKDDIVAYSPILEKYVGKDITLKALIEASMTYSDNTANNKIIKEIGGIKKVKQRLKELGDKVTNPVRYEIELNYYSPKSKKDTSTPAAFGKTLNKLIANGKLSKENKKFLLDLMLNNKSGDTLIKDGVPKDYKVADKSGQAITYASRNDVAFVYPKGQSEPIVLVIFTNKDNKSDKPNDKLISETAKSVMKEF

Row | Compound | IC50 (Beta-lactamase TEM) [µM] | IC50 (Beta-lactamase [1]) [µM] | IC50 (Beta-lactamase [2]) [µM] | MIC (Escherichia coli [3]) [µg/mL] | MIC (Escherichia coli [4]) [µg/mL] | MIC (Pseudomonas aeruginosa) [µg/mL] | MIC (Escherichia coli [5]) [µg/mL] | MIC (Escherichia coli [6]) [µg/mL] | MIC (Escherichia coli [7]) [µg/mL] | MIC (Escherichia coli [8]) [µg/mL] | MIC (Aeromonas sobria) [µg/mL] | MIC (Escherichia coli [9]) [µg/mL] | MIC (Staphylococcus aureus) [µg/mL] | MIC (Klebsiella pneumoniae [10]) [µg/mL] | MIC (Escherichia coli [11]) [µg/mL] | MIC (Enterobacter cloacae [12]) [µg/mL] | MIC (Escherichia coli [13]) [µg/mL] | MIC [14] [µg/mL] | MIC (Klebsiella aerogenes) [µg/mL] | MIC (Escherichia coli [15]) [µg/mL] | other results
1 | CC(=O)OC[C@@]1(C)[C@H](C(=O)O)N2C(=O)/C(=C/C(N)=O)C2S1(=O)=O (some centres undefined) | 0.31 | 8.48 | 2.21 |  |  |  |  |  |  |  |  |  |  |  |  |  |  |  |  |  | 
2 | C[C@]1(COC(=O)Cc2ccc(O)c(O)c2)[C@H](C(=O)[O-])N2C(=O)/C(=C/c3ccccn3)C2S1(=O)=O.[Na+] (some centres undefined) | 0.06 | 0.026 | 0.7 | > 64 | > 64 | > 64 | > 64 | > 64 | > 64 | > 64 | > 64 | > 64 | > 64 | > 64 | > 64 | > 64 | > 64 | > 64 | > 64 | > 64 | MIC (Escherichia coli [16]): > 64 µg/mL; MIC (Escherichia coli [17]): > 64 µg/mL; MIC (Escherichia coli [18]): > 64 µg/mL; MIC (Escherichia coli [19]): > 64 µg/mL; MIC (Klebsiella pneumoniae [20]): > 64 µg/mL; MIC (Klebsiella pneumoniae [21]): > 64 µg/mL; MIC (Serratia marcescens): > 64 µg/mL; MIC (Escherichia coli [22]): > 64 µg/mL; MIC (Escherichia coli [23]): > 64 µg/mL; MIC (Escherichia coli [24]): > 64 µg/mL; MIC (Enterobacter cloacae [25]): > 64 µg/mL
3 | CC(C)(O/N=C(\C(=O)N[C@@H]1C(=O)N2C(C(=O)[O-])=C(C[n+]3ccccc3)CS[C@H]12)c1csc(N)n1)C(=O)O [CEFTAZIDIME] |  |  |  | 0.25 | 1 | 32 | < 0.06 | < 0.06 | 32 | 64 | < 0.06 | < 0.06 | 4 | > 64 | > 64 | > 64 | 0.25 | > 64 | > 64 | 0.25 | MIC (Escherichia coli [26]): 0.12 µg/mL; MIC (Escherichia coli [27]): 0.5 µg/mL; MIC (Escherichia coli [28]): > 64 µg/mL; MIC (Escherichia coli [29]): < 0.06 µg/mL; MIC (Escherichia coli [30]): 0.12 µg/mL; MIC (Escherichia coli [31]): 64 µg/mL; MIC (Escherichia coli [16]): < 0.06 µg/mL; MIC (Escherichia coli [17]): 0.5 µg/mL; MIC (Escherichia coli [18]): 64 µg/mL; MIC (Escherichia coli [19]): 64 µg/mL; MIC (Klebsiella pneumoniae [20]): 64 µg/mL; MIC (Klebsiella pneumoniae [21]): 0.5 µg/mL; MIC (Serratia marcescens): 0.25 µg/mL; MIC (Escherichia coli [22]): < 0.06 µg/mL; MIC (Escherichia coli [23]): 0.25 µg/mL; MIC (Escherichia coli [32]): 0.12 µg/mL; MIC (Escherichia coli [24]): 4 µg/mL; MIC (Enterobacter cloacae [25]): 0.5 µg/mL
4 | COC(=O)/C=C1/C(=O)N2[C@@H](C(=O)O)[C@](C)(COC(C)=O)S(=O)(=O)[C@H]12 | 2.72 | 9.51 |  |  |  |  |  |  |  |  |  |  |  |  |  |  |  |  |  |  | 
5 | C[C@]1(CCl)[C@H](C(=O)O)N2C(=O)/C(=C/C(=O)O)C2S1(=O)=O (some centres undefined) | 120 | 527 | 2100 |  |  |  |  |  |  |  |  |  |  |  |  |  |  |  |  |  | 
